The subject of one assay is THP-1 cells. Nature of the assay: IL-12 p40 release from THP-1 cells (ELISA). The format is cell-based, human. The conditions noted are these: FIG. 14; with and without PMA (0.1 ng/ml); 2% serum media; IFNγ (20 ng/ml); two days. The source says:
(§1) PBMC were obtained from healthy adult volunteers of both sexes on Ficoll Hypaque density gradients and cultured in complete medium consisting of RPMI 1640 and 10% FBS. THP-1 is a human monocytic leukaemia cell line. Compared to other human myeloid cell lines, such as HL-60 and U937, THP-1 cells express CD1d on their surfaces. Because of this characteristic, the THP-1 cell line provides a valuable model for studying the mechanism involved in CD1d crosslinking by measuring the IL-12 and phospho kinases in the cell. THP-1 cells was cultured in complete medium consisting of RPMI 1640 and 10% FBS.
For the activation of these target cells, an anti-CD1 antibody was bound to a plate and then incubated with the cells. In particular, […] were coated with 10 μg/ml protein G overnight at 4° C. Wells were washed with PBS and blocked with BSA at room temperature for four hours. Antibody (10 μg/ml) was added to each well for four hours at room temperature. […]
(§2) To measure the increase induction of IL-12 production by an anti-CD1 antibody, the concentrations of P40 and P70 forms of IL-12 in cultured supernatants were measured with a standard sandwich ELISA technique using combinations of monoclonal antibodies to different epitopes of each cytokine (FIGS. 4-22).
In general terms: In an ELISA, binding on a coated surface is turned into a signal by an enzyme label.

The test system of the next assay is antigen presenting cells. Description: Induction of IL-12 production by antigen presenting cells / monocytes in vitro. Format: cell-based.
Text: as §1
(§3) For the activation of these target cells, an anti-CD1 antibody was bound to a plate and then incubated with the cells. In particular, […] were coated with 10 μg/ml protein G overnight at 4° C. Wells were washed with PBS and blocked with BSA at room temperature for four hours. Antibody (10 μg/ml) was added to each well for four hours at room temperature. The wells were washed again to remove the unbound antibodies, and 1.5×10^5 to 2×10^5 cells were added to each well in RPMI 1640 culture media.
as §2

The next assay relates to adhered PBMC. Description: IL-1α release from adhered PBMC. The format is cell-based, human.
Text: as §1, §3

In the case of `CCCCCCCCCCCCCC(=O)O[C@@H]1[C@@H](C)[C@@]2(O)[C@@H](C=C(CO)C[C@]3(O)C(=O)C(C)=C[C@@H]23)[C@@H]2C(C)(C)[C@]12OC(C)=O` [PMA], in the assay on THP-1 cells, the “effect of PMA on IL-12 p40 released from THP-1 cells” value is listed as “no significant differences”.
With IFNγ: cytokine, the “effect of cytokine on anti-CD1 antibody enhanced production of IL-12” value with antigen presenting cells was “increased the ability of anti-CD1 antibodies to enhance production of IL-12”.
Consider lipopolysaccharide [LPS], for which the “induction of IL-1 relative to 51.1 anti-CD1 antibody” value in the assay on adhered PBMC is given as “more potent inducer of IL-1”. For the same molecule, in the assay with antigen presenting cells, the “levels of IL-12 stimulated relative to 51.1 anti-CD1 antibody” value is listed as “comparable or lower levels of IL-12”.

B1: IL-4: cytokine (protein, UniProt P05112 25-153, looked up)
Interleukin-4: HKCDITLQEIIKTLNSLTEQKTLCTELTVTDIFAASKNTTEKETFCRAATVLRQFYSHHEKDTRCLGATAQQFHRHKQLIRFLKRLDRNLWGLAGLNSCPVKEANQSTLENFLERLKTIMREKYSKCSS
On to B1, for which, in the assay with antigen presenting cells, the “effect of cytokine on anti-CD1 antibody enhanced production of IL-12” value was “increased the ability of anti-CD1 antibodies to enhance production of IL-12”.
